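Growth conditions: 96-well plates. Treatment: test compound, 48 hours, 5 concentrations. Analysis: linear interpolation between bracketing concentrations; unreached endpoints set to highest concentration. The concentration for 50% growth inhibition is given as GI50.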 Calls of active or inactive are those of the source. Cut-off read from the data, not from the text of the source: active = GI50 up to about 1.1 µM and inactive = higher.
What was measured:
Assay in all cases: DTP human tumour cell line panel, 48 h
[1] = test system: KM12
[2] = test system: MDA-N
[3] = test system: UACC-62
[4] = test system: NCI/ADR-RES
[5] = test system: A498
[6] = test system: PC-3
[7] = test system: Malme-3M
[8] = test system: SK-MEL-5
[9] = test system: EKVX
[10] = test system: HCT-116
[11] = test system: SF-268
[12] = test system: SR
[13] = test system: TK-10
[14] = test system: UACC-257
[15] = test system: HT-29
[16] = test system: SK-OV-3
[17] = test system: MOLT-4
[18] = test system: NCI-H23
[19] = test system: Hs-578T
[20] = test system: RPMI-8226

Measured: GI50

O=c1c2ccccc2n2c(-c3ccccc3O)nnc2n1-c1ccccc1
inactive: [1] > 100 µM | [2] > 100 µM | [3] > 100 µM | [4] > 100 µM | [5] > 100 µM | [6] > 100 µM | [7] > 100 µM | [8] > 100 µM | [9] > 100 µM | [10] > 100 µM | [11] > 100 µM | [12] > 100 µM | [13] > 100 µM | [14] > 100 µM | [15] > 100 µM | [16] > 100 µM | [17] > 100 µM | [18] > 100 µM

COc1cc(/C=C2\C[C@H]3[C@@H]4CC=C5C[C@@H](N6CCCC6)CC[C@]5(C)[C@H]4CC[C@]3(C)[C@H]2OC(C)=O)cc(OC)c1OC
inactive: [1] 15.1 µM | [2] 10.9 µM | [3] 17.5 µM | [19] 17.8 µM | [4] 16.3 µM | [5] 15.2 µM | [6] 14.2 µM | [7] 21.5 µM | [8] 15.1 µM | [9] 14.3 µM | [10] 15.5 µM | [11] 14.6 µM | [13] 20.6 µM | [14] 19.6 µM | [15] 10 µM | [16] 15.3 µM | [20] 5.27 µM | [17] 6.38 µM | [18] 15.2 µM

COc1ccc(C2=NN=C3C(c4ccccc4)=Nc4ccccc4N3C2)cc1
inactive: [1] 21.4 µM | [2] 49.1 µM | [3] 29.2 µM | [4] 10.8 µM | [5] 40.1 µM | [6] 31.6 µM | [7] 25.2 µM | [8] 21.3 µM | [9] > 100 µM | [10] 14.6 µM | [11] 13.6 µM | [12] 3.04 µM | [13] 23.5 µM | [14] 27.5 µM | [15] 20.1 µM | [16] 80.2 µM | [20] 38.8 µM | [17] 7.05 µM | [18] 21 µM

CCOC(=O)CCC(NC(=O)c1ccc(CNc2nc3ccccc3nc2C(=O)OCC)cc1)C(=O)OCC (stereo not drawn)
inactive: [1] > 100 µM | [2] > 100 µM | [3] > 100 µM | [19] > 100 µM | [4] > 100 µM | [5] > 100 µM | [6] > 100 µM | [7] 77.3 µM | [8] > 100 µM | [9] > 100 µM | [10] > 100 µM | [11] > 100 µM | [13] > 100 µM | [15] > 100 µM | [16] > 100 µM | [20] > 100 µM | [17] > 100 µM | [18] > 100 µM

CCOC(=O)c1cn2c(n1)sc1cc(OC)ccc12
inactive: [1] 3.34 µM | [2] 2.6 µM | [3] 8.63 µM | [19] 21 µM | [4] 19.5 µM | [5] 46.3 µM | [6] 15.2 µM | [7] 27.6 µM | [8] 2.72 µM | [9] > 53.3 µM | [10] 5.42 µM | [11] 27.4 µM | [13] > 100 µM | [14] 80.9 µM | [15] 2.82 µM | [16] 30.1 µM | [20] 4.08 µM | [17] 4.61 µM | [18] > 47.5 µM

CCOC(=O)CC(=O)C(=O)NN=C1NCCN1
inactive: [1] > 100 µM | [2] > 100 µM | [3] > 100 µM | [19] > 100 µM | [4] > 100 µM | [6] > 100 µM | [7] > 100 µM | [8] > 100 µM | [9] > 100 µM | [10] > 100 µM | [11] > 100 µM | [12] > 100 µM | [13] > 100 µM | [14] > 100 µM | [15] > 100 µM | [16] > 100 µM | [20] > 100 µM | [17] > 100 µM | [18] > 100 µM

C=Cc1c(C)c2cc3nc(c4c5[nH]c(cc6nc(cc1[nH]2)C(C)=C6CC)c(C)c5C(=O)C4C(=O)OC)C(CCC(=O)OC)C3C (stereo not drawn)
inactive: [1] > 100 µM | [2] > 100 µM | [3] > 100 µM | [19] 81.3 µM | [5] > 100 µM | [6] > 100 µM | [7] > 100 µM | [8] > 100 µM | [9] > 100 µM | [10] > 100 µM | [11] > 100 µM | [12] > 100 µM | [13] > 100 µM | [14] > 100 µM | [15] > 100 µM | [16] > 100 µM | [20] > 100 µM | [18] > 100 µM

COc1ccc2[nH]c3c(c2c1)CC(=S)N1CCCC(CC3=O)C1 (stereo not drawn)
inactive: [1] 25.4 µM | [2] 45.2 µM | [3] 39 µM | [19] 44 µM | [4] 63.5 µM | [5] 43.1 µM | [6] 37.2 µM | [7] 43.3 µM | [8] 37.1 µM | [9] 37.8 µM | [10] 29.4 µM | [11] 45 µM | [13] > 100 µM | [14] 44.9 µM | [15] 45.4 µM | [16] 90.8 µM | [20] 64.9 µM | [18] 47.8 µM

Cc1cc2c(cc1Cl)SC(NNC(=O)c1ccncc1)=NS2(=O)=O
inactive: [1] > 10 µM | [2] > 10 µM | [3] > 10 µM | [19] > 10 µM | [4] > 10 µM | [5] > 10 µM | [6] > 10 µM | [7] > 10 µM | [8] > 10 µM | [9] > 10 µM | [10] > 10 µM | [11] > 10 µM | [13] > 10 µM | [14] > 10 µM | [15] > 10 µM | [16] > 10 µM | [20] > 10 µM | [17] > 10 µM | [18] > 10 µM

CC1(C)C2CCC1(C)C(NC(=O)CCN1CCOCC1)C2 (stereo not drawn)
inactive: [1] > 100 µM | [2] > 100 µM | [3] > 100 µM | [19] > 100 µM | [5] > 100 µM | [6] > 100 µM | [7] > 100 µM | [8] > 100 µM | [9] > 100 µM | [10] > 100 µM | [11] > 100 µM | [12] > 100 µM | [13] > 100 µM | [14] > 100 µM | [15] > 100 µM | [16] > 100 µM | [17] > 100 µM | [18] > 100 µM

O=c1[nH]c(=O)n(COCCO)cc1-c1ccccc1
inactive: [1] > 100 µM | [2] > 100 µM | [3] > 100 µM | [19] > 100 µM | [4] > 100 µM | [6] > 100 µM | [7] > 100 µM | [8] > 100 µM | [9] > 100 µM | [10] > 100 µM | [11] > 100 µM | [12] > 100 µM | [13] > 100 µM | [14] > 100 µM | [15] > 100 µM | [16] > 100 µM | [20] > 100 µM | [17] > 100 µM | [18] > 100 µM

N#CC(C#N)=c1c(=O)c2c3ccccc3cc3cccc1c32
inactive: [1] 58.7 µM | [2] > 100 µM | [3] > 100 µM | [19] 31.5 µM | [4] > 100 µM | [5] > 100 µM | [6] 55.7 µM | [8] > 100 µM | [10] 72.6 µM | [11] > 100 µM | [14] > 100 µM | [15] > 100 µM | [16] > 100 µM | [20] > 100 µM | [17] 70.3 µM | [18] > 100 µM

Cc1ccccc1NC(=O)Cc1csc(N/N=C2\C(=O)Nc3ccccc32)n1
inactive: [1] 33.3 µM | [2] 75.2 µM | [3] 49.9 µM | [19] 25.8 µM | [4] 29.7 µM | [5] > 100 µM | [6] 18.6 µM | [7] 32.4 µM | [8] 46.8 µM | [9] 31.8 µM | [10] 43.7 µM | [11] 39.4 µM | [13] 53.2 µM | [14] 91 µM | [15] 55.6 µM | [20] 31 µM | [17] 29.7 µM | [18] 38.4 µM

C[C@@H](CC(O)C(O)C(C)(C)O)C1CCC23CC12CCC1[C@@]2(C)CCC(=O)C(C)(C)C2CC(OC2OC(CO)C(O)C(O)C2O)[C@]13C (stereo partly drawn)
inactive: [1] > 10 µM | [2] > 10 µM | [3] > 10 µM | [19] > 10 µM | [4] > 10 µM | [5] > 10 µM | [6] > 10 µM | [7] > 10 µM | [8] > 10 µM | [9] > 10 µM | [10] > 10 µM | [11] > 10 µM | [13] > 10 µM | [15] > 10 µM | [16] > 10 µM | [20] > 10 µM | [17] > 10 µM | [18] > 10 µM

COC(=O)/C=C/CCC#Cc1ccccc1C#CCC/C=C/C(=O)OC
inactive: [1] 4.98 µM | [2] 4.47 µM | [3] 12.6 µM | [4] 8.28 µM | [5] 38.5 µM | [6] 14.3 µM | [7] 3.9 µM | [9] 36.1 µM | [10] 3.48 µM | [11] 9.82 µM | [12] 3.43 µM | [13] 30.7 µM | [14] 23.7 µM | [15] 3.49 µM | [16] 21.7 µM | [17] 3.01 µM | [18] 4.78 µM

From ChEMBL document CHEMBL1201862, “PubChem BioAssay data set” (2004)
